assay: log P by HPLC on reversed-phase column (C 18), EEC Directive 79/831 Annex V.A8; type: physicochemical; conditions: 40° C., 0.1% aqueous formic acid and acetonitrile, linear gradient 10% to 90% acetonitrile
Experimental: In table 1, the log P values were determined in accordance with EEC Directive 79/831 Annex V.A8 by HPLC (High Performance Liquid Chromatography) on a reversed-phase column (C 18), using the method described below:
Temperature: 40° C.; Mobile phases: 0.1% aqueous formic acid and acetonitrile; linear gradient from 10% acetonitrile to 90% acetonitrile.
Calibration was carried out using unbranched alkan-2-ones (comprising 3 to 16 carbon atoms) with known log P values (determination of the log P values by the retention times using linear interpolation between two successive alkanones). lambda-max-values were determined using UV-spectra from 200 nm to 400 nm and the peak values of the chromatographic signals.

SMILES	logP
C[Si](C)(Cc1cc(Cl)cc(Cl)c1)CN(C(=O)c1ccccc1C(F)(F)F)C1CC1 [Example 120]	5.94
C[Si](C)(CN(C(=S)c1nccnc1C(F)(F)F)C1CC1)c1ccc2ccccc2c1 [Example 126]	5.35
C[Si](C)(CN(C(=O)c1cccnc1C(F)(F)F)C1CC1)c1cc(Cl)cc(Cl)c1 [Example 67]	4.95
C[Si](C)(Cc1ccccc1)CN(C(=O)c1cccnc1C(F)(F)F)C1CC1 [Example 97]	4.19
C[Si](C)(CN(C(=O)c1cccnc1Cl)C1CC1)c1cccc2ccccc12 [Example 69]	4.15
C[Si](C)(Cc1ccccc1Cl)CN(C(=O)c1ccccc1I)C1CC1 [Example 101]	5.45
C[Si](C)(CNC(=S)c1cccnc1C(F)F)c1ccccc1Cl [Example 123]	3.83
C[Si](C)(CN(C(=O)c1cccnc1C(F)(F)F)C1CC1)c1ccccc1Cl [Example 27]	4.31
C[Si](C)(Cc1cccc(Cl)c1)CN(C(=O)c1cccnc1C(F)(F)F)C1CC1 [Example 109]	4.61
CC1=C(C(=O)N(C[Si](C)(C)c2ccccc2Cl)C2CC2)SCCO1 [Example 43]	4.29
C[Si](C)(Cc1ccccc1Cl)CN(C(=O)c1cccnc1C(F)(F)F)C1CC1 [Example 103]	4.59
C[Si](C)(CN(C(=O)c1cccnc1Cl)C1CC1)c1ccsc1 [Example 88]	3.33
C[Si](C)(CN(C(=O)c1ccccc1C(F)(F)F)C1CC1)c1ccc2ccccc2c1 [Example 80]	5.25
C[Si](C)(CNC(=O)c1cccnc1C(F)F)c1ccc(Cl)cc1Cl [Example 57]	3.64
C[Si](C)(CN(C(=O)c1cccnc1Cl)C1CC1)c1ccccc1Cl [Example 23]	3.94
C[Si](C)(Cc1ccc(Cl)cc1Cl)CN(C(=O)c1cccnc1C(F)(F)F)C1CC1 [Example 115]	5.22
C[Si](C)(CN(C(=O)c1cccnc1Cl)C1CC1)c1cccs1 [Example 83]	3.39

SMILES	logP
CCc1ccccc1[Si](C)(C)CN(C(=O)c1cccnc1Cl)C1CC1 [Example 18]	4.16
C[Si](C)(CN(C(=O)c1cccnc1Cl)C1CC1)c1ccccc1C(F)(F)F [Example 53]	4.04
C[Si](C)(CN(C(=O)c1ccccc1C(F)(F)F)C1CC1)c1ccsc1 [Example 90]	4.44
C[Si](C)(Cc1ccccc1Cl)CN(C(=S)c1cccnc1C(F)F)C1CC1 [Example 127]	4.76
C[Si](C)(Cc1cc(Cl)cc(Cl)c1)CN(C(=O)c1cccnc1Cl)C1CC1 [Example 118]	4.92
C[Si](C)(CN(C(=O)c1ccccc1I)C1CC1)c1cccc2ccccc12 [Example 70]	5.31
C[Si](C)(CN(C(=O)c1cccnc1Cl)C1CC1)c1cccc(Cl)c1 [Example 35]	3.96
C[Si](C)(Cc1cccc(Cl)c1)CN(C(=O)c1cccnc1Cl)C1CC1 [Example 106]	4.30
C[Si](C)(Cc1ccccc1)CN(C(=O)c1ccccc1I)C1CC1 [Example 95]	5.00
C[Si](C)(Cc1ccccc1Cl)CN(C(=O)c1cccnc1C(F)F)C1CC1 [Example 98]	4.11
C[Si](C)(CN(C(=O)c1ccccc1I)C1CC1)c1ccccc1Cl [Example 24]	5.14
C[Si](C)(CN(C(=O)c1cccnc1Cl)C1CC1)c1ccccc1 [Example 4]	3.50
CCc1ccccc1[Si](C)(C)CN(C(=O)c1cccnc1C(F)F)C1CC1 [Example 19]	4.06
C[Si](C)(Cc1cccc(Cl)c1)CN(C(=O)c1ccccc1C(F)(F)F)C1CC1 [Example 108]	5.31
C[Si](C)(CN(C(=O)c1cccnc1C(F)(F)F)C1CC1)c1cccc2ccccc12 [Example 73]	4.51
C[Si](C)(CN(C(=O)c1ccccc1C(F)(F)F)C1CC1)c1cccc(Cl)c1 [Example 31]	5.03
C[Si](C)(Cc1ccc(Cl)cc1Cl)CN(C(=O)c1ccccc1I)C1CC1 [Example 113]	6.14
